Measured values reported in PMC4439283 (The FEBS journal, 2015).
Like-named read-outs stand apart in the source and are kept apart here.

How the values were obtained:
[1] = target: biotinylated ECL2S peptide (Biotin-GSGS-CCR5 R168-K197 C178S-GSGS) (human); experiment: SPR
[2] = target: biotinylated ECL2S peptide (Biotin-GSGS-CCR5 R168-K197 C178S-GSGS) (human); experiment: SPR; remark: listed apart in the source
[3] = target: biotinylated ECL2S peptide (Biotin-GSGS-CCR5 R168-K197 C178S-GSGS) (human); experiment: SPR; remark: listed apart in the source
X4 strain LAV = conditions: ref [15]; cited from earlier work
X4 viruses [4] = conditions: ref [15]; cited from earlier work
[5] = in solution; ref [16]; cited from earlier work
R5 viruses [6] = conditions: ref [15], cited from earlier work
X4 viruses [7] = conditions: ref [16]; cited from earlier work
R5 viruses [8] = conditions: ref [16]; cited from earlier work

^mutgp120_(core)/CD4M33 complex
Kd [1]: 7.5 µM | Kd [2]: 6 µM | Kd [3]: 7 µM

^mutgp120_(core) (HIV-1 JR-FL gp120 88-492, ΔV1/V2, V3 replaced by GAG, non-aggregating mutant) (domain or fragment)
Kd [2]: 18 µM

PL2: CCR5 ECL2 peptide, residues 168-191 (RSQKEGLHYTCSSHFPYSQYQFWK; UniProt P51681 168-191, looked up, fragment)
neutralization of X4 strain LAV (X4 strain LAV): None of these peptides neutralized the X4 strain LAV | fusion inhibition, X4 viruses (X4 viruses [4]): did not inhibit fusion of X4 viruses | conformation of free peptide [5]: unstructured in solution | strain specificity (R5 viruses [6]; R5 strains): specific for R5 strains | 50% inhibition concentration, fusion (R5 viruses [6]; R5 virus Ba-L): 20 µg/mL | fusion inhibition, R5 viruses (R5 viruses [6]; fusion of R5 viruses with target cells): inhibited the fusion of R5 viruses with target cells | neutralization concentration range (X4 viruses [7]): ~100 µM | neutralization concentration range (R5 viruses [8]): ~100 µM
